US7062219B2, “Protein fragment complementation assays for high-throughput and high-content screening” (Odyssey Thera Inc., priority 1997, dated 2006)
Entries after “also recorded” stand apart in the source; their conditions may differ. Non-standard residues stand in square brackets, D forms with d. Residues, ends and D or L forms follow the SMILES beside them. Nle = CCCC[C@H](N)C(=O)O

Tests used:
Format in all cases: cell-based
[1] = system: IkBa/Ubiquitin complexes; assay: IkBa/ubiquitin YFP PCA in HEK293T cells; settings: TNF induced HEK293T cells, ALLN versus vehicle
Procedure: IkBa-YFP[1] and YFP[2]-ubiquitin were constructed as described above and transiently expressed in HEK293T cells. […] The present invention can be applied to the large-scale identification of proteins modified by ubiquitin and ubiquitin-like polypeptides; for example, using library screening as in Example 2 of the present invention where the ‘bait’ is ubiquitin or a ubiquitin-like molecule, or by using interaction mapping as in Example 4 where ubiquitin or a ubiquitin-like molecule is tested against individual cDNAs to identify ubiquitin-protein complexes. In addition, by constructing ubiquitin PCAs for specific protein targets, the assays that are the subject of the present invention can immediately be applied to high-throughput screening for novel therapeutic agents.

[2] = system: NFkB (p65/p50) complex; assay: transient high-content YFP PCA for NFkB (p65/p50) nuclear translocation in CHO cells; settings: 40 micrograms/ml ALLN 1 hour prior to and during TNF
Procedure: Fusion genes were subcloned into pCDNA3.1 expression vectors (Invitrogen) with a Zeocin selectable marker for YFP[1]-p50, and a hygromycin marker for YFP[2]-p65. A linker consisting of (GGGGS)2 (SEQ ID No.1) separated the genes of interest and the YFP fragments. CHO DUKXB11 cells were seeded into 96 well plates at a density of 8×10e3 cells/well and transfected 24 hours later with YFP[1] and YFP[2] fusion genes at a 1:1 molar ratio using Fugene (Boehringer Mannheim) according to manufacturer's directions. A total of 20 ng DNA per well was used for each sample. Thirty-six hours post-transfection, cells were serum starved by incubation in 0.25% FBS-supplemented aMEM for an additional 16–18 hours. For cytokine induction, certain cells were treated with 25 ng/ml mTNF (Boehringer Mannheim) for 30 min. To examine the effect of proteasome inhibition on NFkB nuclear translocation, the serum-starved cells were treated with 40 micrograms/ml ALLN (Calbiochem) for 1 hour prior to and during the mTNF alpha induction period. The cells were rinsed with PBS and the subcellular location of NFkB complexes was visualized and images acquired using a Nikon Eclipse TE2000 fluorescence microscope at excitation and emission wavelengths of 485 nm and 527 nm, respectively. Quantitative analysis of fluorescence intensities was performed using Metamorph software (Universal Imaging, Molecular Devices, Inc.)

[3] = system: IkBa/p65 complex; assay: stable cell line IkBa/p65 YFP PCA, mean fluorescence intensity
Text: TNF-induced degradation of IkBa, which is a consequence of ubiquitination and proteasomal degradation, frees bound NFkB and results in translocation of that transcription factor into the nucleus. Thus, disassembly of the IkBa-NFkB complex is a key step in NFkB-mediated gene regulation. To visualize regulation of the NFkB pathway at this level, we engineered a stable cell line expressing an IkBa/p65 PCA (FIG. 14). ERK1/MEK1 was used as a control. ERK1 was ligated to the 5′ end of YFP[1] while IkBa and MEK1 were appended to YFP[2] in N-terminal fusions. […]
Cells expressing IkBa-YFP[1]/YFP[2]-p65 or the controls, MEK-YFP[2]/ERK1-YFP[1], were seeded at 20,000 cells/well in black-walled poly-lysine coated 96 well plate (Greiner). […] Fluorescence was visualized and images were acquired using a Discovery-1 automated fluorescence imager (Molecular Devices, Inc.) equipped with excitation and emission filters 470/35 and 535/60, respectively. […]
Images were analyzed using Image J. Total mean fluorescence intensity for all cells was assessed by adding weighted mean fluorescence intensities for the nucleus and cytoplasm for individual cells in the population for a given condition +/− standard error. […] There was no effect of TNF treatment on the fluorescence intensity of the control (MEK/ERK) PCA.

CCCC[C@@H](C=O)NC(=O)[C@H](CC(C)C)NC(=O)[C@H](CC(C)C)NC(C)=O [ALLN] (Ac-Leu-Leu-[Nle]-aldehyde)
mean fluorescence intensity of ubiquitin-IkBa complexes [1]: increases the accumulation; also recorded: significantly increased | effect on TNF-induced cytoplasmic-to-nuclear translocation of NFkB complexes [2]: inhibition of the TNF response; also recorded: inhibited | inhibition of the TNF-induced reduction of IkBa/p65 complexes ([3]; ALLN treatment for 4 hr): 98% | effect on TNF-induced reduction in IkBa/p65 signal (in words) ([3]; FIG. 14): blocked
